Assay results: patent publication US11524968B2, “Heterocyclic compound as a protein kinase inhibitor” (HK inno.N Corporation, priority 2017, dated 2022)

These compounds were tested against JAK1 (Homo sapiens (Human), UniProt P23458) (assay: Analysis of JAK1 activity inhibition ability (ADP-Glo Kinase Assay)). Conditions: JAK1 enzyme, ADP-Glo luminescence, ATP 250 uM, IRS-itide substrate, 30° C. 40 minutes; read-out: IC50.
Assay type: biochemical
Protocol: Test Example 1: Analysis of JAK1 Activity Inhibition Ability of Compound of Formula 1 (ADP-Glo™ Kinase Assay)
A JAK inhibition ability of a compound according to the present invention was identified as follows.
A control material and a test material were prepared for each concentration, in such a way that they were diluted by means of DMSO. At the same time, ATP (250 uM) and JAK substrate (JAK1, IRS-itide 40 ng/mL) were prepared, in such a way that they were diluted by means of kinase buffer (40 mM Tris-HCl pH 7.5, 20 mM MgCl2, 0.5 mg/mL BSA, 50 uM DTT).
A test drug for each concentration, substrate, ATP and JAK enzyme were mixed in an eppendorf tube, and reacted in a 30° C. incubator for 40 minutes.
ADP-Glo™ reagent contained in ADP-Glo™ Kinase Enzyme System (Promega, USA, V9571) was added into each eppendorf tube, and reacted in a 30° C. incubator for 40 minutes. A kinase detection reagent contained in ADP-Go™ Kinase Enzyme System was inserted into the eppendorf tube, then an integration time was set to 1 second by using Wallac Victor 2™, then luminescence was measured, and then JAKs phosphorylation inhibition ability of the test material was analyzed. The concentration of the compound, which causes 50% of the JAK enzyme activity inhibition in comparison With the control group, was determined as IC50 (nM) of an inhibitor, wherein the results thereof are shown in a following table 1.

JAK1, sequence (P23458 whole entry): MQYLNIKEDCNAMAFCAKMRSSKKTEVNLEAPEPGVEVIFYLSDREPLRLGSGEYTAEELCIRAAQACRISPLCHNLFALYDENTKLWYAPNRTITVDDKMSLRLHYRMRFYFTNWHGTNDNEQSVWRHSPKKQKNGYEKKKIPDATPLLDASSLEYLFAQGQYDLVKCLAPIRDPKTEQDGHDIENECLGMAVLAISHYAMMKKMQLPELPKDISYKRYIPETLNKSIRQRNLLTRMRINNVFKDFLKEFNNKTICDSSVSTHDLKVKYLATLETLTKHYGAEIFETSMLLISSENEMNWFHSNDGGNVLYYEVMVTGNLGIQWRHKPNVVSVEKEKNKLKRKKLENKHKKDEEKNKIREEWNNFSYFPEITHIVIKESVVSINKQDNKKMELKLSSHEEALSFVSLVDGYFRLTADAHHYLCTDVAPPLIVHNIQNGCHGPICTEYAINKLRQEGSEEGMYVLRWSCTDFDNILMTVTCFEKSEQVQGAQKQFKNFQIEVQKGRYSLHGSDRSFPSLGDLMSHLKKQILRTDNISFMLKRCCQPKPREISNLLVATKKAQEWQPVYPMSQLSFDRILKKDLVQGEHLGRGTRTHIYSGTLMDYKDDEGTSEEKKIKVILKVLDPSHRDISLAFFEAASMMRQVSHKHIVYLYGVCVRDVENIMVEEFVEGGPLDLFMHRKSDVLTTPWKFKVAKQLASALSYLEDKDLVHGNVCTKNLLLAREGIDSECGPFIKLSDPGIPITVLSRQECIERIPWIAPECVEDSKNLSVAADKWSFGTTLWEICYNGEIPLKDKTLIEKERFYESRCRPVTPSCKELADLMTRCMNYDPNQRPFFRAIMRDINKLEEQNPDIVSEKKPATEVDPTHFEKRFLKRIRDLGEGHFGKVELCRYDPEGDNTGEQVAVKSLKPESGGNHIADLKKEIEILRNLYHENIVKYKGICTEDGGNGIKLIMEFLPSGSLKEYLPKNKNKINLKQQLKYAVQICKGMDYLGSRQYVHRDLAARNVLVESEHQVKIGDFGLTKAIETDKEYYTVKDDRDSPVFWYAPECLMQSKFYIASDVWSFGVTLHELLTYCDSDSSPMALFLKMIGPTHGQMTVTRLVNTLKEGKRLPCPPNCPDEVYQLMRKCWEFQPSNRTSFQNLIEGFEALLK

SMILES	IC50 [nM]
N#C[C@H]1CC1C(=O)N1CC=C(c2cc(NC(=O)C3CC3)nc3[nH]ccc23)CC1 (stereo in doubt) [Example 267, N-(4-(1-((1S,2S)-2-cyanocyclopropane-1-carbonyl)-1,2,3,6-tetrahydropyridin-4-yl)-1H-pyrrolo[2,3-b]pyridin-6-yl)cyclopropanecarboxamide]	< 20
CC1CN(C(=O)CC#N)CC=C1c1cc(NC(=O)C2CC2)nc2[nH]ccc12 (stereo in doubt) [Example 305, (R)—N-(4-(1-(2-cyanoacetyl)-3-methyl-1,2,3,6-tetrahydropyridin-4-yl)-1H-pyrrolo[2,3-b]pyridin-6-yl)cyclopropanecarboxamide]	20 to 200
CCC1CC(c2cc(NC(=O)C3CC3)nc3[nH]ccc23)=CCN1C(=O)CC#N (stereo in doubt) [Example 417, (R)—N-(4-(1-(2-cyanoacetyl)-2-ethyl-1,2,3,6-tetrahydropyridin-4-yl)-1H-pyrrolo[2,3-b]pyridin-6-yl)cyclopropanecarboxamide]	< 20
CCS(=O)(=O)Nc1ccc(-c2cc(NC(=O)C3CC3)nc3[nH]ccc23)cc1F [Example 1, N-(4-(4-(ethylsulfonamido)-3-fluorophenyl)-1H-pyrrolo[2,3-b]pyridin-6-yl)cyclopropanecarboxamide]	< 20
O=C(Nc1cc(-c2ccc(NS(=O)(=O)c3ccc(F)c(F)c3)cc2)c2cc[nH]c2n1)C1CC1 [Example 2, N-(4-(4-((3,4-difluorophenyl)sulfonamido)phenyl)-1H-pyrrolo[2,3-b]pyridin-6-yl)cyclopropanecarboxamide]	< 20
O=C(Nc1cc(-c2ccc(NS(=O)(=O)CCCF)cc2)c2cc[nH]c2n1)C1CC1 [Example 3, N-(4-(4-((3-fluoropropyl)sulfonamido)phenyl)-1H-pyrrolo[2,3-b]pyridin-6-yl)cyclopropanecarboxamide]	< 20
CCS(=O)(=O)Nc1ccc(-c2cc(NC(=O)C3CC3)nc3[nH]ccc23)cc1 [Example 4, N-(4-(4-(ethylsulfonamido)phenyl)-1H-pyrrolo[2,3-b]pyridin-6-yl)cyclopropanecarboxamide]	< 20
CCCS(=O)(=O)Nc1ccc(-c2cc(NC(=O)C3CC3)nc3[nH]ccc23)cc1 [Example 5, N-(4-(4-(propylsulfonamido)phenyl)-1H-pyrrolo[2,3-b]pyridin-6-yl)cyclopropanecarboxamide]	< 20
CCCCS(=O)(=O)Nc1ccc(-c2cc(NC(=O)C3CC3)nc3[nH]ccc23)cc1 [Example 6, N-(4-(4-(butylsulfonamido)phenyl)-1H-pyrrolo[2,3-b]pyridin-6-yl)cyclopropanecarboxamide]	< 20
O=C(Nc1cc(-c2ccc(NS(=O)(=O)C3CCCCC3)cc2)c2cc[nH]c2n1)C1CC1 [Example 7, N-(4-(4-(cyclohexanesulfonamido)phenyl)-1H-pyrrolo[2,3-b]pyridin-6-yl)cyclopropanecarboxamide]	< 20
O=C(Nc1cc(-c2ccc(NS(=O)(=O)CCF)cc2)c2cc[nH]c2n1)C1CC1 [Example 8, N-(4-(4-((2-fluoroethyl)sulfonamido)phenyl)-1H-pyrrolo[2,3-b]pyridin-6-yl)cyclopropanecarboxamide]	20 to 200
O=C(Nc1cc(-c2ccc(NS(=O)(=O)C3CCS(=O)(=O)CC3)cc2)c2cc[nH]c2n1)C1CC1 [Example 9, N-(4-(4-((1,1-dioxidotetrahydro-2H-thiopyran)-4-sulfonamido)phenyl)-1H-pyrrolo[2,3-b]pyridin-6-yl)cyclopropanecarboxamide]	< 20
O=C(Nc1cc(-c2ccc(NS(=O)(=O)C3CCS(=O)(=O)C3)cc2)c2cc[nH]c2n1)C1CC1 (stereo not shown) [Example 10, N-(4-(4-((1,1-dioxidotetrahydrothiophene)-3-sulfonamido)phenyl)-1H-pyrrolo[2,3-b]pyridin-6-yl)cyclopropanecarboxamide]	< 20
O=C(Nc1cc(-c2ccc(NS(=O)(=O)C3CS(=O)(=O)C3)cc2)c2cc[nH]c2n1)C1CC1 [Example 11, N-(4-(4-((1,1-dioxidothietane)-3-sulfonamido)phenyl)-1H-pyrrolo[2,3-b]pyridin-6-yl)cyclopropanecarboxamide]	< 20
O=C(Nc1cc(-c2ccc(NS(=O)(=O)c3ccc(Cl)nc3)cc2)c2cc[nH]c2n1)C1CC1 [Example 12, N-(4-(4-((6-chloropyridine)-3-sulfonamido)phenyl)-1H-pyrrolo[2,3-b]pyridin-6-yl)cyclopropanecarboxamide]	< 20
O=C(Nc1cc(-c2ccc(NS(=O)(=O)c3ccc(F)cc3)cc2)c2cc[nH]c2n1)C1CC1 [Example 13, N-(4-(4-((4-fluorophenyl)sulfonamido)phenyl)-1H-pyrrolo[2,3-b]pyridin-6-yl)cyclopropanecarboxamide]	< 20

SMILES	IC50 [nM]
O=C(Nc1cc(-c2ccc(NS(=O)(=O)c3ccc(Cl)cc3)cc2)c2cc[nH]c2n1)C1CC1 [Example 14, N-(4-(4-((4-chlorophenyl)sulfonamido)phenyl)-1H-pyrrolo[2,3-b]pyridin-6-yl)cyclopropanecarboxamide]	< 20
Cn1cncc1S(=O)(=O)Nc1ccc(-c2cc(NC(=O)C3CC3)nc3[nH]ccc23)cc1 [Example 15, N-(4-(4-((1-methyl-1H-imidazole)-5-sulfonamido)phenyl)-1H-pyrrolo[2,3-b]pyridin-6-yl)cyclopropanecarboxamide]	20 to 200
Cn1cc(S(=O)(=O)Nc2ccc(-c3cc(NC(=O)C4CC4)nc4[nH]ccc34)cc2)cn1 [Example 16, N-(4-(4-((1-methyl-1H-pyrazole)-4-sulfonamido)phenyl)-1H-pyrrolo[2,3-b]pyridin-6-yl)cyclopropanecarboxamide]	20 to 200
NC(=O)c1ccc(S(=O)(=O)Nc2ccc(-c3cc(NC(=O)C4CC4)nc4[nH]ccc34)cc2)cc1 [Example 17, 4-(N-(4-(6-(cyclopropanecarboxamido)-1H-pyrrolo[2,3-b]pyridin-4-yl)phenyl)sulfamoyl)benzamide]	20 to 200
CC(=O)N1CCC(S(=O)(=O)Nc2ccc(-c3cc(NC(=O)C4CC4)nc4[nH]ccc34)cc2)CC1 [Example 18, N-(4-(4-((1-acetylpiperidine)-4-sulfonamido)phenyl)-1H-pyrrolo[2,3-b]pyridin-6-yl)cyclopropanecarboxamide]	20 to 200
CC(C)Oc1ccc(S(=O)(=O)Nc2ccc(-c3cc(NC(=O)C4CC4)nc4[nH]ccc34)cc2)cc1 [Example 19, N-(4-(4-((4-isopropoxyphenyl)sulfonamido)phenyl)-1H-pyrrolo[2,3-b]pyridin-6-yl)cyclopropanecarboxamide]	< 20
O=C(Nc1cc(-c2ccc(NS(=O)(=O)c3ccc(Br)cc3)cc2)c2cc[nH]c2n1)C1CC1 [Example 20, N-(4-(4-((4-bromophenyl)sulfonamido)phenyl)-1H-pyrrolo[2,3-b]pyridin-6-yl)cyclopropanecarboxamide]	20 to 200
N#Cc1ccc(S(=O)(=O)Nc2ccc(-c3cc(NC(=O)C4CC4)nc4[nH]ccc34)cc2)cc1 [Example 21, N-(4-(4-((4-cyanophenyl)sulfonamido)phenyl)-1H-pyrrolo[2,3-b]pyridin-6-yl)cyclopropanecarboxamide]	20 to 200
O=C(Nc1cc(-c2ccc(NS(=O)(=O)c3ccc4c(c3)CCO4)cc2)c2cc[nH]c2n1)C1CC1 [Example 22, N-(4-(4-((2,3-dihydrobenzofuran)-5-sulfonamido)phenyl)-1H-pyrrolo[2,3-b]pyridin-6-yl)cyclopropanecarboxamide]	20 to 200
COc1ccc(S(=O)(=O)Nc2ccc(-c3cc(NC(=O)C4CC4)nc4[nH]ccc34)cc2)cn1 [Example 23, N-(4-(4-((6-methoxypyridine)-3-sulfonamido)phenyl)-1H-pyrrolo[2,3-b]pyridin-6-yl)cyclopropanecarboxamide]	< 20
O=C(Nc1cc(-c2ccc(NS(=O)(=O)c3ccccc3)cc2)c2cc[nH]c2n1)C1CC1 [Example 24, N-(4-(4-(phenylsulfonamido)phenyl)-1H-pyrrolo[2,3-b]pyridin-6-yl)cyclopropanecarboxamide]	< 20
O=C(Nc1cc(-c2ccc(NS(=O)(=O)c3cccc(F)c3)cc2)c2cc[nH]c2n1)C1CC1 [Example 25, N-(4-(4-((3-fluorophenyl)sulfonamido)phenyl)-1H-pyrrolo[2,3-b]pyridin-6-yl)cyclopropanecarboxamide]	< 20
O=C(Nc1cc(-c2ccc(NS(=O)(=O)c3cccc(Cl)c3)cc2)c2cc[nH]c2n1)C1CC1 [Example 26, N-(4-(4-((3-chlorophenyl)sulfonamido)phenyl)-1H-pyrrolo[2,3-b]pyridin-6-yl)cyclopropanecarboxamide]	20 to 200
Cc1ccc(S(=O)(=O)Nc2ccc(-c3cc(NC(=O)C4CC4)nc4[nH]ccc34)cc2)cc1 [Example 27, N-(4-(4-((4-methylphenyl)sulfonamido)phenyl)-1H-pyrrolo[2,3-b]pyridin-6-yl)cyclopropanecarboxamide]	20 to 200
CSc1ccc(S(=O)(=O)Nc2ccc(-c3cc(NC(=O)C4CC4)nc4[nH]ccc34)cc2)cc1 [Example 28, N-(4-(4-((4-(methylthio)phenyl)sulfonamido)phenyl)-1H-pyrrolo[2,3-b]pyridin-6-yl)cyclopropanecarboxamide]	20 to 200
